Measured values from patent publication US20240059688A1, “CONOLIDINE ANALOGUES AS SELECTIVE ACKR3 MODULATORS FOR THE TREATMENT OF CANCER” (Luxembourg Institute of Health (LIH), priority 2020, published 2024).

Key:
human CXCR4 = target: T1, human CXCR4 (Homo sapiens, UniProt P61073); test: CXCR4 β-arrestin recruitment assay (PathHunter); type: cell-based; settings: human CXCR4-C2Cl2 cells, relative to CXCL-12
T1 construct: host or cells: C2C12
Method: (§1) Compounds were evaluated for agonist activity using a β-arrestin recruitment assay based on β-galactosidase complementation (PathHunter, DiscoverX). Stable human ACKR3-β-arrestin-2-CHO cells (DiscoverX) were plated into 96-well white-walled assay plates at 15,000 cells/well in Cell Plating Reagent 2 (DiscoveRx) and incubated at 37° C., 5% CO2 overnight. The next day, test compounds were prepared at 10× concentration in DPBS/1% DMSO and 10 μL was added to the cells. CXCL-12 was included as a positive agonist control. Following a 1.5 hr incubation at 37° C., 55 μL of detection reagent (prepared according to the manufacturer's specifications) was added to each well. The plate was incubated at room temperature for 1 hr, after which luminescence was measured at 1 sec/well using an EnSpire multimode plate reader (PerkinElmer). Relative luminescence units (RLU) were plotted against the log of compound concentration and data were fit to a three-parameter logistic curve to generate EC50 values (GraphPad Prism). EC50 and % Emax values are reported as means±SEM and are the result of at least two independent experiments performed in duplicate. The CXCR4 assay was run similarly except that human CXCR4-C2Cl2 cells (DiscoverX) were plated at 20,000 cells/well in Cell Plating Reagent 9. The next day, the media was removed and cells were incubated with Cell Plating Reagent 4 for 3 hrs, after which the assay was conducted as described above.

ACKR3 = ACKR3 (Homo sapiens, UniProt P25106); test: ACKR3 β-arrestin recruitment assay (PathHunter, β-galactosidase complementation); type: cell-based; settings: for EC50: stable human ACKR3-β-arrestin-2-CHO cells, mean ± SEM, at least two independent experiments in duplicate; for Emax: read-out: ACKR3 β-arrestin % CXCL12 Emax ± SEM
Chain of ACKR3 (P25106 whole entry): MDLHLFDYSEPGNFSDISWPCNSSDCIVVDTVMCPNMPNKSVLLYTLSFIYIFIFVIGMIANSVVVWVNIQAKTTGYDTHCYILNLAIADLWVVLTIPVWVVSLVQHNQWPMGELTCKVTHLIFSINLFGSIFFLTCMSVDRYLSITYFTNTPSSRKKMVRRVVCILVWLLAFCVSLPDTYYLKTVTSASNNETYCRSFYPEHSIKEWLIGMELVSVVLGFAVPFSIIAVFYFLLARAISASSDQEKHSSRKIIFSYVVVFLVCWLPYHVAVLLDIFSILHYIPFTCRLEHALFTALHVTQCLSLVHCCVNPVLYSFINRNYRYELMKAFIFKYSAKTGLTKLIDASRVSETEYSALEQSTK
Method: as §1

T1 sequence (P61073 whole entry): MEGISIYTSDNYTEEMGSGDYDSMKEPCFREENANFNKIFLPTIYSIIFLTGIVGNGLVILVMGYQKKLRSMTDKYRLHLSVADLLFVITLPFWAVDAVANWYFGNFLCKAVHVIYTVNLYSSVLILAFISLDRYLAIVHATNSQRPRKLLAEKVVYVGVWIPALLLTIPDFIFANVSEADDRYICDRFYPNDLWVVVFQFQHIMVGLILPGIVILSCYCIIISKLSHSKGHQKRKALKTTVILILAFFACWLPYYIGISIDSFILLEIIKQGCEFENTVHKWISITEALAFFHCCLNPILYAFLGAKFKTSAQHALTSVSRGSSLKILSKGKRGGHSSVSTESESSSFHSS

Row | SMILES | CXCR4 β-arrestin % CXCL-12Emax (n = 2) (human CXCR4) | EC50 (ACKR3) | Emax (ACKR3)
1 | CCCCCN1CCC(C(=O)c2cc3ccccc3n2CCCCC)CC1 [WW-20] | 11% | 1.77 ± 0.078 µM | 154 ± 7%
2 | O=C(c1cc2ccccc2[nH]1)N1CCNCC12CC2 [WW-22, 2-(4,7-diazaspiro[2.5]oct-4-ylcarbonyl)-1H-indole] | 4% | > 10 µM | –
3 | CCCCCN1CCN(C(=O)c2cc3ccccc3n2CCCCC)C2(CC2)C1 [WW-24, 1-pentyl-2-[(7-pentyl-4,7-diazaspiro[2.5]oct-4-yl)carbonyl]-1H-indole] | 5% | 6.05 ± 0.53 µM | 154 ± 17%
4 | CC(C)(C)OC(=O)N1CC[C@H](NC(=O)c2cc3ccccc3[nH]2)C1 [WW-26, Tert-butyl (3S)-3-[(1H-indol-2-ylcarbonyl)amino]pyrrolidine-1-carboxylate] | 9% | > 10 µM | –
5 | O=C(N[C@H]1CCN(c2nccn3cccc23)C1)c1cc2ccccc2[nH]1 [WW-33, N-[(3S)-1-pyrrolo[1,2-a]pyrazin-1-ylpyrrolidin-3-yl]-1H-indole-2-carboxamide] | 6% | 0.377 ± 0.009 µM | 150 ± 3%
6 | CCCCCN1CC[C@H](NC(=O)c2cc3cc(OC)c(OC)c(OC)c3[nH]2)C1 [WW-43, 5,6,7-Trimethoxy-N-[(3S)-1-pentylpyrrolidin-3-yl]-1H-indole-2-carboxamide] | 10% | > 10 µM | –
7 | CCCCCN1CC[C@H](NC(=O)c2cc3ccc(-c4ccc(F)cc4)cc3[nH]2)C1 [WW-44, 6-(4-Fluorophenyl)-N-[(3S)-1-pentylpyrrolidin-3-yl]-1H-indole-2-carboxamide] | 26% | 4.14 ± 0.11 µM | 110 ± 7%
8 | CCCCCN1CC[C@H](NC(=O)c2cc3ccc(-c4ccc(OC)cc4)cc3[nH]2)C1 [WW-45, 6-(4-methoxyphenyl)-N-[(3S)-1-pentylpyrrolidin-3-yl]-1H-indole-2-carboxamide] | 6% | > 10 µM | –
9 | CCCCCN1CC[C@H](NC(=O)c2cc3cccc(-c4ccc(F)cc4)c3[nH]2)C1 [WW-46, 7-(4-Fluorophenyl)-N-[(3S)-1-pentylpyrrolidin-3-yl]-1H-indole-2-carboxamide] | 7% | 0.504 ± 0.062 µM | 119 ± 8%
10 | CCCCCN1CC[C@H](NC(=O)c2cc3c(OC)c(OC)c(OC)cc3[nH]2)C1 [WW-47, 4,5,6-Trimethoxy-N-[(3S)-1-pentylpyrrolidin-3-yl]-1H-indole-2-carboxamide] | 18% | > 10 µM | –
11 | C/C=C1/CN(CCCCC)CC[C@H]1C(=O)c1cc2cc(Cl)ccc2[nH]1 [WW-54, (5-chloro-1H-indol-2-yl)[(3E,4R)-3-ethylidene-1-pentylpiperidin-4-yl]methanone] | 15% | 1.96 ± 0.027 µM | 129 ± 4%
12 | C/C=C1/CN(CCCCC)CC[C@H]1C(=O)c1cc2ccc(F)cc2[nH]1 [WW-55, [(3E,4R)-3-ethylidene-1-pentylpiperidin-4-yl](6-fluoro-1H-indol-2-yl)methanone] | 10% | 5 ± 0.6 µM | 90 ± 1%
13 | C/C=C1/CN(CCOCCN)CC[C@H]1C(=O)c1cc2ccccc2[nH]1 [WW-60, (3E,4R)-(3-ethylidene-1-(2-ethoxy-(2-aminoethyl))piperidin-4-yl)(1H-indol-2-yl)methanone] | 11% | > 10 µM | –
14 | C/C=C1/CN(Cc2ccc(OC)cc2)CC[C@H]1C(O)c1cc2ccccc2n1S(=O)(=O)c1ccccc1 (stereo partly drawn) [WW-61, [(3E,4R)-3-ethylidene-1-(4-methoxybenzyl)piperidin-4-yl][1-(phenylsulfonyl)-1H-indol-2-yl]methanol] | 10% | 0.527 ± 0.13 µM | 156 ± 7%
15 | C/C=C1/CN(CCCC(C)C)CC[C@H]1C(=O)c1cc2ccccc2[nH]1 [WW-63, [(3E,4R)-3-ethylidene-1-(4-methylpentyl)piperidin-4-yl](1H-indol-2-yl)methanone] | 15% | 1.78 ± 0.16 µM | 152 ± 1%
16 | CCOC(=O)C(c1[nH]c2ccccc2c1C=O)C1CCN(S(=O)(=O)c2ccc(C)cc2)C/C1=N\O[Si](C)(C)C(C)(C)C (centres unmarked) [WW-64] | 16% | > 10 µM | –
17 | CCOC(=O)C(c1[nH]c2ccccc2c1C=O)C1CCN(S(=O)(=O)c2ccc(C)cc2)C/C1=N\O (centres unmarked) [WW-65, ethyl (3-formyl-1H-indol-2-yl){(3Z)-3-(hydroxyamino)-1-[(4-methylphenyl)sulfonyl]piperidin-4-yl}acetate] | 11% | > 10 µM | –
18 | C/C=C1/CN(CCCCC)CC[C@H]1C(=O)c1cc2cc(C(C)=O)ccc2n1CCCCC [WW-66, 1-(2-{[(3E,4R)-3-ethylidene-1-pentylpiperidin-4-yl]carbonyl}-1-pentyl-1H-indol-5-yl)ethanone] | 8% | > 10 µM | –
19 | C/C=C1/CN(CC2CCCCC2)CC[C@H]1C(=O)c1cc2ccccc2[nH]1 [WW-68, [(3E,4R)-1-(cyclohexylmethyl)-3-ethylidenepiperidin-4-yl](1H-indol-2-yl)methanone] | 8% | 3.61 ± 0.39 µM | 136 ± 3%
20 | C/C=C1/CN(Cc2ccc(OC)cc2)CC[C@H]1C(O)c1cc2cc(-c3ccc(F)cc3)ccc2n1S(=O)(=O)c1ccccc1 (some centres unmarked) [WW-69] | 11% | 1.68 ± 0.3 µM | 79 ± 6%

The remaining lines, values ahead:

Row | CXCR4 β-arrestin % CXCL-12Emax (n = 2) (human CXCR4) | EC50 (ACKR3) | Emax (ACKR3) | SMILES
21 | 9% | > 10 µM | – | CCCCCN1CCC(C(=O)c2cc3ccccc3[nH]2)CC1 [WW-19, 1H-indol-2-yl(1-pentylpiperidin-4-yl)methanone]
22 | 10% | > 10 µM | – | CCCCCN1CCN(Cc2cc3ccccc3[nH]2)CC1 [WW-21, 2-[(4-pentylpiperazin-1-yl)methyl]-1H-indole]
23 | 11% | 3.04 ± 0.13 µM | 156 ± 11% | CCCCCN1CCN(C(=O)c2cc3ccccc3[nH]2)C2(CC2)C1 [WW-23, 2-[(7-pentyl-4,7-diazaspiro[2.5]oct-4-yl)carbonyl]-1H-indole]
24 | 4% | > 10 µM | – | CCCCCN1CCN(C(=O)c2cc3ccccc3[nH]2)C(CC)C1 (centres unmarked) [WW-25, 2-[(2-ethyl-4-pentylpiperazin-1-yl)carbonyl]-1H-indole]
25 | 4% | > 10 µM | – | CC(C)(C)OC(=O)N1CCCN(C(=O)c2cc3ccccc3[nH]2)CC1 [WW-27, tert-butyl 4-(1H-indol-2-ylcarbonyl)-1,4-diazepane-1-carboxylate]
26 | 11% | > 10 µM | – | CCCCCN1CCN(C(=O)c2cc3ccccc3[nH]2)CC1 [WW-28, 2-[(4-pentylpiperazin-1-yl)carbonyl]-1H-indole]
27 | 15% | 1.92 ± 0.056 µM | 145 ± 4% | CCCCCN1CC[C@H](NC(=O)c2cc3ccccc3[nH]2)C1 [WW-29, N-[(3S)-1-pentylpyrrolidin-3-yl]-1H-indole-2-carboxamide]
28 | 7% | > 10 µM | – | CCCCCN1CCCN(C(=O)c2cc3ccccc3[nH]2)CC1 [WW-30, 2-[(4-pentyl-1,4-diazepan-1-yl)carbonyl]-1H-indole]
29 | 7% | > 10 µM | – | NC1CN(C(=O)c2cc3ccccc3[nH]2)C1 [WW-31, 1-(1H-indole-2-ylcarbonyl)azetidin-3-amine]
30 | 9% | > 10 µM | – | CCCCCNC1CN(C(=O)c2cc3ccccc3[nH]2)C1 [WW-32, 1-(1H-indole-2-ylcarbonyl)-N-pentylazetidin-3-amine]
31 | 5% | 6.45 ± 0.72 µM | 96 ± 4% | CCCCCN1CCC(C)(C(=O)c2cc3ccccc3[nH]2)CC1 [WW-57, 1H-Indole-2-yl(4-methyl-1-pentylpiperidin-4-yl)methanone]
32 | 3% | > 10 µM | – | C/C=C1/CN(CCCCN)CC[C@H]1C(=O)c1cc2ccccc2[nH]1 [WW-58, (3E,4R)-(3-ethylidene-1-(4-aminobutyl)piperidin-4-yl)(1H-indol-2-yl)methanone]
33 | 9% | > 10 µM | – | C/C=C1/CN(CCCCCN)CC[C@H]1C(=O)c1cc2ccccc2[nH]1 [WW-59, (3E,4R)-(3-ethylidene-1-(5-aminopentyl)piperidin-4-yl)(1H-indol-2-yl)methanone]
34 | 5% | 3.04 ± 0.32 µM | 137 ± 3% | C/C=C1/CN(CCCCCC)CC[C@H]1C(=O)c1cc2ccccc2[nH]1 [WW-62, [(3E,4R)-3-ethylidene-1-hexylpiperidin-4-yl](1H-indol-2-yl)methanone]
35 | 12% | 2.46 ± 0.27 µM | 135 ± 4% | C/C=C1/CN(CCCCCCC)CC[C@H]1C(=O)c1cc2ccccc2[nH]1 [WW-67, [(3E,4R)-3-ethylidene-1-heptylpiperidin-4-yl](1H-indol-2-yl)methanone]
